Data: patent publication US7998681B2, “Diagnosis and therapy of antibody-mediated inflammatory auto-immune disorders” (Los Angeles Biomedical Research Institute at Harbor-UCLA …, priority 2000, dated 2011)

Tests used:
IL-16 [1] = test: IL-16 ELISA of medium from treated fibroblasts, GD donors; type: cell-based, human; conditions: GD, limit of detection 20 pg/ml
From the text: In addition to its therapeutic aspects, the present invention also relates to a diagnostic method for detecting the presence of antibody-activated fibroblasts in the patient. Applicants believe that several auto immune diseases or disorders are associated with antibody-activated fibroblasts. […] Altered levels of these chemoattractants can be detected in various biological samples in mammals, preferably humans. Levels of IL-16 and/or RANTES may be monitored in a patient, using standard techniques, as an indication of the deleterious aspects of the disease condition. Biological samples, including but not limited to serum, vitreous humor, aqueous humor, synovial fluid, and tissue, will be drawn from the patient using standard techniques. Particularly preferred are serum samples. The measurement of the IL-16 and RANTES levels may be monitored using any method possible to detect the levels of these proteins in biological samples. A preferred method of analysis is by ELISA as described in Sciaky, D. et al., J. Immunol. 164(7):3806-14, 2000. An ELISA specific for IL-16 can be used to assess the levels released by fibroblasts as described previously in Lim, K. G. et al., J. Immunol. 156(7): 2566-70, 1996. An ELISA specific for RANTES can be used according to the manufacturer's specification (BioSource Intl., Camarillo, Calif.).
(§1) The levels of IL-16 and RANTES were then assessed with specific ELISAs. The ELISA assay for IL-16 is performed essentially as discussed in Sciaky D., Brazer, W., Center, D. M., Cruikshank, W. W. and Smith, T. J.: Cultured human fibroblasts express constitutive IL-16 mRNA: Cytokine induction of active IL-16 protein synthesis through a caspase-3-dependent mechanism. J. Immunol. 164(7):3806-14, 2000). An ELISA (BioSource) for RANTES was performed according to the manufacturer's instructions.

IL-16 [2] = test: IL-16 ELISA of medium from treated fibroblasts, normal donors; type: cell-based, human; conditions: limit of detection 20 pg/ml
From the text: In addition to its therapeutic aspects, the present invention also relates to a diagnostic method for detecting the presence of antibody-activated fibroblasts in the patient. Applicants believe that several auto immune diseases or disorders are associated with antibody-activated fibroblasts. Applicants have shown that increased activation of fibroblasts by auto-antibodies can be monitored by determining the levels of IL-16 and/or RANTES production in a patient. Altered levels of these chemoattractants can be detected in various biological samples in mammals, preferably humans. Levels of IL-16 and/or RANTES may be monitored in a patient, using standard techniques, as an indication of the deleterious aspects of the disease condition. Biological samples, including but not limited to serum, vitreous humor, aqueous humor, synovial fluid, and tissue, will be drawn from the patient using standard techniques. Particularly preferred are serum samples. The measurement of the IL-16 and RANTES levels may be monitored using any method possible to detect the levels of these proteins in biological samples. A preferred method of analysis is by ELISA as described in Sciaky, D. et al., J. Immunol. 164(7):3806-14, 2000. An ELISA specific for IL-16 can be used to assess the levels released by fibroblasts as described previously in Lim, K. G. et al., J. Immunol. 156(7): 2566-70, 1996. An ELISA specific for RANTES can be used according to the manufacturer's specification (BioSource Intl., Camarillo, Calif.).
as §1, with “instructions. In an analysis of over a dozen strains, TAO specific IgG elicit substantial induction of IL-16 and RANTES and in no case were normal fibroblasts so affected.” for “instructions.”

IL-1β: pro-inflammatory cytokine used to activate fibroblasts
IL-16 (IL-16 [1]; strain 1, Orbit): 71 ± 9 pg/mL
IL-16 (IL-16 [1]; strain 2, Orbit): 82 ± 9 pg/mL
IL-16 (IL-16 [1]; strain 3, Abdominal skin): 82 ± 9 pg/mL
IL-16 (IL-16 [1]; strain 4, Orbit): 194 ± 29 pg/mL
IL-16 (IL-16 [1]; strain 6, Neck skin): 116 ± 27 pg/mL
IL-16 (IL-16 [1]; strain 7, Pretibial skin): 194 ± 29 pg/mL
IL-16 (IL-16 [1]; strain 8, Pretibial skin): 79 ± 11 pg/mL
IL-16 (IL-16 [1]; strain 9, Orbit): 218 ± 33 pg/mL
IL-16 (IL-16 [1]; strain 10, Orbit): 246 ± 32 pg/mL
IL-16 (IL-16 [1]; strain 11, Orbit): 94 ± 12 pg/mL
IL-16 (IL-16 [2]; strain 12, Orbit): 56 ± 10 pg/mL
IL-16 (IL-16 [2]; strain 14, Orbit): 68 ± 9 pg/mL
IL-16 (IL-16 [2]; strain 15, Extremity Skin): 138 ± 15 pg/mL
IL-16 (IL-16 [2]; strain 16, Extremity Skin): 98 ± 19 pg/mL
